Data from PubChem BioAssay (NCI).
Where “and” joins values, the source holds several entries; their conditions need not be identical. Equal entries are not always repeated.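 Each compound was tested at five concentrations against cells in 96-well plates for 48 hours. At the GI50, growth is halved. TGI: total growth inhibition.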

What was measured:
Experiment in all cases: NCI anticancer screen, dose series, 48 h
[1] = tested on: SN12C renal
[2] = tested on: CCRF-CEM leukemia
[3] = tested on: PC-3 prostate
[4] = tested on: LOX IMVI melanoma
[5] = tested on: HS 578T breast
[6] = tested on: A549 NSCLC
[7] = tested on: DU-145 prostate
[8] = tested on: RXF 393 renal
[9] = tested on: SR leukemia
[10] = tested on: MOLT-4 leukemia

SMILES | TGI [1] | TGI [2] | TGI [3] | TGI [4] | TGI [5] | TGI [6] | TGI [7] | TGI [8] | TGI [9] | TGI [10] | GI50 [1] | GI50 [2] | GI50 [3] | GI50 [4] | GI50 [6] | GI50 [7] | GI50 [8] | GI50 [10] | GI50 [9] | GI50 [5]
CCNc1ccc2c(c1)C(=O)N(OS(C)(=O)=O)C2=O | > 100 µM | > 100 µM | > 100 µM | > 100 µM | > 100 µM | > 100 µM | > 100 µM | > 100 µM | – | – | – | – | – | – | – | – | – | – | – | –
C[C@@H]1CC2(C[C@@H](C)C3[C@@H](CC4(C)CCCC5C6=CC(O)(CC[C@]34C)OC6=CC(=O)OC5(C)C)O2)OC1=O (stereo not given in full) | > 100 µM | – | – | > 100 µM | – | > 100 µM | – | > 100 µM | > 100 µM | > 100 µM | – | – | – | – | – | – | – | – | – | –
Cc1c(-c2ccc(-c3ccccc3F)cc2)nc2ccc(F)cc2c1C(=O)O | 80.6 µM and 280 µM | 190 µM and 684 µM | 103 µM and 429 µM | 31.2 µM and 71.3 µM | – | 78 µM and 99.3 µM and 149 µM | 119 µM and 343 µM | 121 µM and 236 µM | – | 66.7 µM and 71.7 µM and 294 µM | 2.63 µM and 5.25 µM | 0.0742 µM and 0.557 µM | 0.27 µM and 0.75 µM | 0.508 µM | 0.384 µM and 0.679 µM | 0.867 µM and 1.18 µM | 76 µM | 0.5 µM | – | –
COc1cc(N)c(Cl)cc1C(=O)N[C@@H]1CCN(CCCOc2ccc(F)cc2)C[C@@H]1OC | > 100 µM | – | – | > 100 µM | > 100 µM | > 100 µM | > 100 µM | > 100 µM | 50.4 µM | > 100 µM | > 100 µM | – | – | 27 µM | > 100 µM | > 100 µM | > 100 µM | 29.8 µM | 13.6 µM | > 100 µM
COc1cccc(C=NC23CC4CC(CC(C4)C2)C3)c1 | > 100 µM | > 100 µM | – | > 100 µM | – | > 100 µM | – | > 100 µM | > 100 µM | > 100 µM | – | – | – | – | – | – | – | – | – | –
Cc1cc(O)c2c(c1)OC1(C)CCC3C(C)(C)CCCC34COC2C14 (stereo not given) | 30.8 µM | 42.7 µM | – | 27.3 µM | – | 28.6 µM | – | – | – | 27.4 µM | – | – | – | – | – | – | – | – | – | –
CNC(=O)NCCCCC(NC(C)=O)C(=O)NCc1ccccc1 (stereo not given) | > 100 µM | > 100 µM | – | > 100 µM | – | > 100 µM | – | > 100 µM | – | > 100 µM | – | – | – | – | – | – | – | – | – | –
C=C(c1ccccc1)c1cc2c(=O)[nH]ccc2n1C | > 100 µM | > 100 µM | – | > 100 µM | – | > 100 µM | – | 86.1 µM | – | > 100 µM | – | – | – | – | – | – | – | – | – | –
O=C(C#Cc1ccccc1)NC/C=C/c1ccccc1 | > 100 µM | > 100 µM | – | > 100 µM | – | > 100 µM | – | 37 µM | > 100 µM | > 100 µM | – | – | – | – | – | – | – | – | – | –
O=C(O)C1CC2C=CCC(C2)C1 (stereo not given) | – | > 100 µM | – | > 100 µM | – | > 100 µM | – | > 100 µM | > 100 µM | > 100 µM | – | – | – | – | – | – | – | – | – | –
CC(NC1CCCC[C@@H]1O)c1ccccc1 (stereo not given in full) | > 100 µM | > 100 µM | – | > 100 µM | – | > 100 µM | – | > 100 µM | – | > 100 µM | – | – | – | – | – | – | – | – | – | –
O=C1N=C2N=C(c3ccc(Cl)cc3)N(c3ccc(Cl)cc3)N2Sc2ccccc21 | > 100 µM | > 100 µM | – | > 100 µM | – | > 100 µM | – | > 100 µM | – | > 100 µM | – | – | – | – | – | – | – | – | – | –
COc1c2c(c(O)c3c4c(c(C)cc13)C1OC3(C(OC)OC5CC(C)(O)C(OC6CC(C)(O)C(O)C(C)O6)C(C)O5)OC1C(OC)(O4)C31CO1)C(=O)C(O)CC2OC1CC(C)(O)C(OC(C)=O)C(C)O1 (stereo not given) | 0.113 µM | – | – | – | – | 1.45 µM | – | < 0.01 µM | – | 0.102 µM | – | – | – | – | – | – | – | – | – | –
C/C(=C\c1ccccc1)C(=O)c1c(C)cc(C)cc1C | > 100 µM | > 100 µM | – | – | – | > 100 µM | – | > 100 µM | > 100 µM | > 100 µM | – | – | – | – | – | – | – | – | – | –
c1ccc(N2CCN(CCN3CCc4c([nH]c5ccccc45)C3c3cccnc3)CC2)cc1 (stereo not given) | > 100 µM | > 100 µM | – | – | – | > 100 µM | – | – | > 100 µM | > 100 µM | – | – | – | – | – | – | – | – | – | –
O=C(NCCCN1CCN(CCCNC(=O)Nc2cc(Cl)ccc2Cl)CC1)Nc1cc(Cl)ccc1Cl | > 100 µM | > 100 µM | – | > 100 µM | – | > 100 µM | – | > 100 µM | – | > 100 µM | – | – | – | – | – | – | – | – | – | –
COC(=O)C1=C(O)c2cc(OC)c(OC)c(OC)c2C(c2ccc3c(c2)OCO3)[C@@H]1C(=O)OC (stereo not given in full) | > 100 µM | > 100 µM | – | > 100 µM | – | > 100 µM | – | 6.26 µM | > 100 µM | > 100 µM | – | – | – | – | – | – | – | – | – | –
COc1ccc(OCC(=O)O)c2c1CCC(C)C2=O (stereo not given) | > 100 µM | > 100 µM | – | > 100 µM | – | > 100 µM | – | – | – | > 100 µM | – | – | – | – | – | – | – | – | – | –
O=C(CC1(O)CCCCC1)OC1CCCC1 | > 100 µM | – | > 100 µM | > 100 µM | > 100 µM | > 100 µM | > 100 µM | > 100 µM | – | – | – | – | – | – | – | – | – | – | – | –
